Two sequences from patent US20240270801A1, “EPITOPE PEPTIDE OF HUMAN ALPHA-SYNUCLEIN AND PHARMACEUTICAL COMPOSITION INCLUDING SAID PEPTIDE” (Sumitomo Pharma Co., Ltd., priority 2021, published 2024) can be followed below.

The subject of assay [1] is aggregated human αSyn. The assay can be described thus: Antibody-inducing ability in mice: ELISA antibody titer of immune serum with respect to aggregated human αSyn. In kind it is in vivo, mouse. The settings on record: for Antibody titer with respect to aggregated human αSyn (N = 4 − 6, mean ± standard deviation): Example 2, serum 2 weeks after second administration; for Antibody titer with respect to aggregated human αSyn, relative to control: mice. The method, then:
(§1) Using the various AJ peptide-human αSyn peptide conjugates produced in Example 1, an antibody-inducing ability with respect to human αSyn in mice was evaluated. The various AJ-human αSyn peptide conjugates (250 μg/mouse) or KLH-DMPVDPDN (25 μg/mouse) in physiological saline were intramuscularly administered to balb/c mice (females, 6 weeks old, CLEA Japan, Inc.) twice at a 2-week interval for immunization using aluminum hydroxide (Alum) (InvivoGen, 50 μg/mouse) as an adjuvant. As a negative control, physiological saline (100 μL/mouse) comprising the same amount of aluminum hydroxide was administered twice. Two weeks after the second administration, serum was recovered to evaluate the antibody titer with respect to human αSyn by ELISA.
(§2) ELISA was performed by the following method. 96-well plates were coated with human αSyn (Sigma) at 0.2 μg/well. After washing with PBST (Phosphate Buffered Saline comprising 0.05% Tween) once, blocking was performed with 3% skim milk (FUJIFILM Wako Pure Chemical Corporation). After washing with PBST three times, diluted serum was added to cause a reaction at room temperature for 1 hour. Furthermore, after washing with PBST three times, Goat anti-mouse IgG-HRP (abcam) was added to cause a reaction at room temperature for 1 hour. After washing with PBST three times, SureBlue TMB Microwell Peroxidase Substrate (KPL) was added to cause a reaction at room temperature for 10 minutes while light shielding. An equal volume of a TMB Stop Solution (KPL) was added to stop the reaction, and the absorbance at 450 nm was measured. ELISA with respect to aggregated human αSyn was performed by coating with the aggregated human αSyn (Stress Marq) at 15 ng/well instead of human αSyn in the above-mentioned method.
The antibody-inducing ability of the AJ-human αSyn peptide conjugates (AJ-p54, AJ-p54-KLH, and AJ-DMPVDPDN) produced in Example 1 with respect to human αSyn and aggregated human αSyn in mice was evaluated. Physiological saline or the AJ-human αSyn peptide conjugate (250 μg/mouse) was intramuscularly administered to balb/c mice (females, 6 weeks old, CLEA Japan, Inc.) twice at a 2-week interval using Alum (InvivoGen, 50 μg/mouse) as an adjuvant. Furthermore, KLH-DMPVDPDN (25 μg/mouse) was administered using Alum (InvivoGen, 50 μg/mouse) as an adjuvant. Two weeks after the second administration, serum was recovered to evaluate the antibody titer by ELISA. ELISA was performed by the method described in Example 2.
The antibody-inducing ability of the produced various human αSyn peptide conjugates with respect to human αSyn and aggregated human αSyn in the mice was evaluated by the method described in Example 2 using the antibody titers with respect to human αSyn and aggregated human αSyn of the mouse immune serum. […] In Table 6, the antibody titer of AJ-p242, AJ-p244, AJ-p347, or AJ-p361 is shown with the antibody titer of AJ-p150 as a control being 1 (logarithm). In addition, the antibody titers of AJ-p229, AJ-p237, and AJ-p298 are shown with the antibody titer of AJ-p54 as a control being 1 (logarithm).
The antibody-inducing ability of the AJ-human αSyn peptide conjugates with a modified linker with respect to human αSyn and aggregated human αSyn in the mice was evaluated using the antibody titers with respect to human αSyn and aggregated human αSyn of the mouse immune serum. […] In Table 8, the antibody titers of the AJ-human αSyn peptide conjugates with various modified linkers comprising p54 are shown with the antibody titer of AJ-p54 as a control being 1 (logarithm). In addition, the antibody titers of the AJ-human αSyn peptide conjugates with various modified linkers comprising p150 are shown with the antibody titer of AJ-p150 as a control being 1 (logarithm).

In assay [2] the target is aggregated human αSyn (Homo sapiens, UniProt P37840). The assay can be described thus: Aggregated human αSyn-neutralizing effect of antibody induced in mice: phosphorylation of human αSyn in SH-SY5Y cells. It is filed as cell-based. Further details: purchased Stress Marq (StressMarq Biosciences Inc.). The settings on record: antibody (100 μg/mL) induced in C57BL/6 mice by the vaccine; FIG. 1B, isotype control = 100. The method, then: The aggregated human αSyn-neutralizing effect of the antibody induced in the mice by the AJ-human αSyn peptide conjugate (AJ-p54) produced in Example 1 was evaluated. Physiological saline or the AJ-human αSyn peptide conjugate (250 μg/mouse) was intramuscularly administered to C57BL/6 mice (males, 6 weeks old, CLEA Japan, Inc.) four times at a 2-week interval using CFA (DIFCO) as an adjuvant. Furthermore, KLH-DMPVDPDN (25 μg/mouse) was administered using Alum (InvivoGen, 50 μg/mouse) as an adjuvant. Two weeks after the fourth administration, serum was recovered. After recovering the antibodies comprised in the serum by Protein G HP SpinTrap (Cytiva), the human αSyn- and aggregated human αSyn-neutralizing effect was evaluated by a method described below.
As the human αSyn- and aggregated human αSyn-neutralizing effect, the influence on phosphorylation of human αSyn in SH-SY5Y cells (ATCC) was evaluated. The SH-SY5Y cells were seeded in a 96-well plate at 2×10^4 cells/well and cultured under the conditions of 37° C. and 5% CO2. […] After fixing the cells with a 4% paraformaldehyde/phosphate buffer solution (FUJIFILM Wako Pure Chemical Corporation), phosphorylated human αSyn was stained with a fluorescence-labeled anti-phosphorylated αSyn antibody (Cell Signaling). The amount of phosphorylated human αSyn was evaluated by image analysis using ArrayScan (Thermo Fisher Scientific Inc.). […]

The next assay concerns human αSyn. The assay can be described thus: Antibody-inducing ability in mice: ELISA antibody titer of immune serum with respect to human αSyn. It is filed as in vivo, mouse. Further details: key to Antibody titer with respect to human αSyn, relative to control: log titer relative to control conjugate (control = 1). The following applies: for Antibody titer with respect to human αSyn (N = 4 − 6, mean ± standard deviation): Example 2, serum 2 weeks after second administration. The method, then:
as §1
as §2, with “above-mentioned method. […]” for “above-mentioned method.”
The antibody-inducing ability of the produced various human αSyn peptide conjugates with respect to human αSyn and aggregated human αSyn in the mice was evaluated by the method described in Example 2 using the antibody titers with respect to human αSyn and aggregated human αSyn of the mouse immune serum. […] In Table 6, the antibody titer of AJ-p242, AJ-p244, AJ-p347, or AJ-p361 is shown with the antibody titer of AJ-p150 as a control being 1 (logarithm). In addition, the antibody titers of AJ-p229, AJ-p237, and AJ-p298 are shown with the antibody titer of AJ-p54 as a control being 1 (logarithm). […]

Assay [3] deals with aggregated human αSyn. The assay can be described thus: Antibody-inducing ability in cynomolgus monkeys: ELISA antibody titer with respect to aggregated human αSyn. In kind it is in vivo. The settings on record: i.m. three times at 2-week interval, Alum; AJ conjugates 2,000 μg/monkey, KLH-DMPVDPDN 75 μg/monkey; FIG. 4B. The method, then: The antibody-inducing ability of the AJ-human αSyn peptide conjugate with respect to human αSyn and aggregated human αSyn in cynomolgus monkeys was evaluated. The AJ-human αSyn peptide conjugates (AJ-p54, AJ-p150, AJ-p283, AJ-p142, and AJ-p273) (2,000 μg/monkey) and KLH-DMPVDPDN (75 μg/monkey) were intramuscularly administered to cynomolgus monkeys (males, 3 to 7 years old, SNBL, Ltd.) three times at a 2-week interval using Alum (InvivoGen, 200 μg/monkey) as an adjuvant. Blood was collected before administration and 4, 6, 8, and 10 weeks after the first administration to recover the serum. ELISA was performed by the following method.
96-well plates were coated with human αSyn (Sigma-Aldrich) or aggregated human αSyn (StressMarq Biosciences Inc.) at 0.2 μg/well or 15 ng/well. After washing with PBST once, blocking was performed with 3% skim milk (FUJIFILM Wako Pure Chemical Corporation). After washing with PBST three times, diluted serum was added to cause a reaction at room temperature for 1 hour. Furthermore, after washing with PBST three times, Goat anti-Monkey IgG-HRP (Bio-Rad Laboratories, Inc.) was added to cause a reaction at room temperature for 1 hour. […] An equal volume of a TMB Stop Solution (KPL) was added to stop the reaction, and the absorbance at 450 nm was measured.

Where [4] appears, read: balb/c mice, i.m. twice at 2-week interval, Alum, AJ conjugates 250 μg/mouse, KLH-DMPVDPDN 25 μg/mouse.
Where [5] appears, read: Example 4, balb/c mice, i.m. twice at 2-week interval, Alum, AJ conjugates 250 μg/mouse, KLH-DMPVDPDN 25 μg/mouse.

Non-standard residues stand in square brackets, D forms with d. No end group written: not given here. Ahx = NCCCCCC(=O)O

As to “ELKLIFLHRLKRLRKRLKRKXKKDQLGKNE (ELKLIFLHRLKRLRKRLKRK[Ahx]KKDQLGKNE) [AJ-p54, AJ peptide linked to p54 via ε-Acp (X)]”, the “Antibody titer with respect to aggregated human αSyn (N = 4 − 6, mean ± standard deviation)” value in the assay on aggregated human αSyn [1] (setting [4]) turned out to be 768 ± 862. The “Induction of the antibody to aggregated human αSyn (in words)” value in the assay with aggregated human αSyn [1] (Example 4, balb/c mice) is recorded as “induced”. Also, in the assay on aggregated human αSyn [1] (setting [5]), the “Antibody titer with respect to aggregated human αSyn (mean ± standard deviation)” value is recorded as 768 ± 296. Besides, the “Antibody titer with respect to aggregated human αSyn, relative to control” value in the assay on aggregated human αSyn [1] (Example 9, N = 4, titer of AJ-p150 or AJ-p54 as control being 1 (logarithm)) came to 1; in the assay on aggregated human αSyn [1] (Example 10, modified linker, titer of AJ-p54 or AJ-p150 as control being 1 (logarithm)), 1. For the same sequence, the “Phosphorylation of human αSyn in SH-SY5Y cells to which aggregated human αSyn was added” value with aggregated human αSyn [2] is listed as “inhibited”. The “Antibody titer with respect to human αSyn (N = 4 − 6, mean ± standard deviation)” value in the assay with human αSyn (setting [4]) was found to be 4096 ± 2896. Also, the “Induction of the antibody to human αSyn (in words)” value is “induced to the same extent” with human αSyn (Example 3, mice) and “induced” in the assay on human αSyn (Example 4, balb/c mice). The “Antibody titer (N = 4 − 6, mean ± standard deviation) with respect to human αSyn” value in the assay on human αSyn (Example 3, mice, same manner as Example 2) came out at 1434 ± 1510. In the assay on human αSyn (setting [5]), the “Antibody titer with respect to human αSyn (mean ± standard deviation)” value was 1434 ± 1510. The “Antibody titer with respect to human αSyn, relative to control” value with human αSyn (Example 9, mice, N = 4, titer of AJ-p150 or AJ-p54 as control being 1 (logarithm)) is reported as 1; with human αSyn (Example 10, modified linker, mice, titer of AJ-p54 or AJ-p150 as control being 1 (logarithm)), 1.
Consider “ELKLIFLHRLKRLRKRLKRKXKKTQLGKND (ELKLIFLHRLKRLRKRLKRK[Ahx]KKTQLGKND) [AJ-p273]”, for which the “Induction of the antibody to aggregated human αSyn in cynomolgus monkeys” value in the assay on aggregated human αSyn [3] is “not induced”. In addition, the “Antibody titer with respect to aggregated human αSyn (N = 4 − 6, mean ± standard deviation)” value in the assay with aggregated human αSyn [1] (setting [4]) was found to be 704 ± 896. The “Antibody titer with respect to human αSyn (N = 4 − 6, mean ± standard deviation)” value with human αSyn (setting [4]) is listed as 3328 ± 3278.
